Our source for the IC50 values is PubChem BioAssay AID1117277 (The Scripps Research Institute Molecular Screening Center, 2014).

For the assay, the system named is Jurkat human T cells viability, luminescence (cytotoxicity counterscreen). Kind of assay: viability loss in human Jurkat cells – cell-based, luminescence, cytotoxicity control, dose response (AID 1117277).

Calls of active or inactive are those of the source. The rule behind the calls is not given here. A value given as a limit tells only on which side of the number the result lay.

Turning to `O=C(C[N+]12CCC(CC1)C(OC(=O)c1ccccc1)C2)c1ccc([N+](=O)[O-])cc1` (stereo unspecified), the IC50 (commonly the concentration that gives 50% inhibition) was > 83.3 µM (inactive).
